In general, Kd refers to the concentration at which binding is half-saturated. A word on the IC50: it is the concentration at which inhibition is half-maximal.

Experiment [1] has as its target T1, KRas G12D (Homo sapiens (Human), UniProt P01116, G12D). The experiment can be described thus: KRas G12D Surface Plasmon Resonance (SPR) Binding Assay. Conditions: Biacore T200, immobilized biotinylated KRAS protein, 1:1 binding model. (SPR reads the build-up and loss of mass on a sensor chip optically.)
Target sequence in this assay (P01116-2 other isoform, or with tags, fused parts or gaps G12D): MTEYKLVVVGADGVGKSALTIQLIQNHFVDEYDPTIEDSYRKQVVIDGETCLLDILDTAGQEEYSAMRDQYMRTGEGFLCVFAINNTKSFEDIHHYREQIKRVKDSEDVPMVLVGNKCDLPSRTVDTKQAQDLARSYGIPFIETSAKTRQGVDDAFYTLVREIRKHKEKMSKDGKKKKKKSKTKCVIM
The target in experiment [2] is T1, KRas G12D. Briefly: KRas G12D Binding Assay (TR-FRET displacement of Cy5 labelled tracer). The note with it: GDP-loaded KRAS G12D (amino acids 1:169), 60 minute incubation at 22° C. The protocol:
After a 60 minute incubation at 22° C., the reaction was measured using a PerkinElmer EnVision multimode plate reader via TR-FRET dual wavelength detection, and the percent of control (POC) calculated using a ratiometric emission factor. […] The POC values were fit to a 4-parameter logistic curve and the IC50 value was determined as the concentration where the curve crosses 50 POC.
ND stands for “not determined.”
Target sequence in this assay (P01116 other isoform, or with tags, fused parts or gaps G12D): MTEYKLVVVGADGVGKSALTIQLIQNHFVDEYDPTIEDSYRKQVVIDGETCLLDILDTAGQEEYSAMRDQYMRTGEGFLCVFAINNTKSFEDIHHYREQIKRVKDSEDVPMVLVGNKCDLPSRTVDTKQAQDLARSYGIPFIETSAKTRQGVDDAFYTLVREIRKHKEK

SMILES strings stand for the structures.

In turn, `Fc1ccc2cccc(-c3ncc4c(N5C[C@H]6CC[C@@H](C5)N6)nc(OCCc5cccnc5)nc4c3F)c2c1` [Example 90, 4-((1R,5S)-3,8-diazabicyclo[3.2.1]octan-3-yl)-8-fluoro-7-(7-fluoronaphthalen-1-yl)-2-(2-(pyridin-3-yl)ethoxy)pyrido[4,3-d]pyrimidine] came in with a Kd at KRas G12D [1] of 7810 nM. The 50% inhibitory concentration (IC50) at KRas G12D [2] came out at 4490 nM.
In the same order, the values of `Oc1cc(-c2ncc3c(N4C[C@H]5CC[C@@H](C4)N5)nc(OCC45CCCN4CCC5)nc3c2F)c2ccccc2c1` [Example 109, 4-(4-((1R,5S)-3,8-diazabicyclo[3.2.1]octan-3-yl)-8-fluoro-2-((tetrahydro-1H-pyrrolizin-7a(5H)-yl)methoxy)pyrido[4,3-d]pyrimidin-7-yl)naphthalen-2-ol bis(2,2,2-trifluoroacetate)] are more than 500000 nM and 0.5 nM.
Turning to `Cc1c(-c2cc(O)cc3ccccc23)ncc2c(N3C[C@H]4CC[C@@H](C3)N4)nc(OC[C@@H]3CCCN3C)nc12` [Example 190, 4-(4-((1R,5S)-3,8-diazabicyclo[3.2.1]octan-3-yl)-8-methyl-2-(((S)-1-methylpyrrolidin-2-yl)methoxy)pyrido[4,3-d]pyrimidin-7-yl)naphthalen-2-ol], the dissociation constant (Kd) on KRas G12D [1] was determined as 76.1 nM. The molecule also came in with an IC50 at KRas G12D [2] of 64.1 nM.
In the case of `Oc1cc(-c2ncc3c(N4C[C@H]5CC[C@@H](C4)N5)nc(OCCc4ccccn4)nc3c2F)c2ccccc2c1` [Example 4, 4-(4-((1R,5S)-3,8-diazabicyclo[3.2.1]octan-3-yl)-8-fluoro-2-(2-(pyridin-2-yl)ethoxy)pyrido[4,3-d]pyrimidin-7-yl)naphthalen-2-ol], on KRas G12D [1], the Kd was 156 nM. Besides, at KRas G12D [2], the IC50 was 496 nM.
On to `Fc1c(-c2cccc3cccc(Cl)c23)ncc2c(N3CC4CCC(C3)N4)nc(OC[C@@]34CCCN3C[C@H](F)C4)nc12` (stereo in doubt) [Example 134, 4-((1R,5S)-3,8-diazabicyclo[3.2.1]octan-3-yl)-7-(8-chloronaphthalen-1-yl)-8-fluoro-2-((2-fluorotetrahydro-1H-pyrrolizin-7a(5H)-yl)methoxy)pyrido[4,3-d]pyrimidine], for which the Kd on KRas G12D [1] stood at 6.9 nM. At KRas G12D [2], this molecule showed an IC50 of 3.7 nM.
Take `Oc1cc(-c2ncc3c(N4C[C@H]5CC[C@@H](C4)N5)nc(OCC4CCCC4)nc3c2F)c2ccccc2c1` [Example 73, 4-(4-((1R,5S)-3,8-diazabicyclo[3.2.1]octan-3-yl)-2-(cyclopentylmethoxy)-8-fluoropyrido[4,3-d]pyrimidin-7-yl)naphthalen-2-ol]: binding on KRas G12D [1] was characterised by a dissociation constant (Kd) of 667000 nM. In addition, the IC50 at KRas G12D [2] came to 573 nM.
`C[C@H](CN(C)C)Oc1nc(N2C[C@H]3CC[C@@H](C2)N3)c2cnc(-c3cc(O)cc4ccccc34)c(F)c2n1` [Example 17, 4-(4-((1R,5S)-3,8-diazabicyclo[3.2.1]octan-3-yl)-2-(((R)-1-(dimethylamino)propan-2-yl)oxy)-8-fluoropyrido[4,3-d]pyrimidin-7-yl)naphthalen-2-ol] displayed a Kd at KRas G12D [1] of 2210 nM. Further, the IC50 at KRas G12D [2] came out at 666 nM.
For the molecule `Oc1cc(-c2ncc3c(N4C[C@H]5CC[C@@H](C4)N5)nc(OCCN4CCOCC4)nc3c2F)c2ccccc2c1` [Example 25, 4-(4-((1R,5S)-3,8-diazabicyclo[3.2.1]octan-3-yl)-8-fluoro-2-(2-morpholinoethoxy)pyrido[4,3-d]pyrimidin-7-yl)naphthalen-2-ol], the Kd at KRas G12D [1] stood at 270 nM. Moreover, on KRas G12D [2], the half-maximal inhibitory concentration (IC50) came out at 338 nM.
With `Cc1cccc2cccc(-c3ncc4c(N5C[C@H]6CC[C@@H](C5)N6)nc(OC[C@@H]5CCCN5C)nc4c3F)c12` [Example 15, 4-((1R,5S)-3,8-diazabicyclo[3.2.1]octan-3-yl)-8-fluoro-7-(8-methylnaphthalen-1-yl)-2-(((S)-1-methylpyrrolidin-2-yl)methoxy)pyrido[4,3-d]pyrimidine], on KRas G12D [1], the Kd was found to be 208 nM. The molecule further gave an IC50 at KRas G12D [2] of 260 nM.
The molecule `Cn1cncc1CCOc1nc(N2C[C@H]3CC[C@@H](C2)N3)c2cnc(-c3cc(O)cc4ccccc34)c(F)c2n1` [Example 110, 4-(4-((1R,5S)-3,8-diazabicyclo[3.2.1]octan-3-yl)-8-fluoro-2-(2-(1-methyl-1H-imidazol-5-yl)ethoxy)pyrido[4,3-d]pyrimidin-7-yl)naphthalen-2-ol] gave a Kd at KRas G12D [1] of 42.3 nM. Moreover, the half-inhibitory concentration (IC50) at KRas G12D [2] is 57.5 nM.
`Oc1cc(-c2ncc3c(N4C[C@H]5CC[C@@H](C4)N5)nc(OCCc4ccc(F)cn4)nc3c2F)c2ccccc2c1` [Example 102, 4-(4-((1R,5S)-3,8-diazabicyclo[3.2.1]octan-3-yl)-8-fluoro-2-(2-(5-fluoropyridin-2-yl)ethoxy)pyrido[4,3-d]pyrimidin-7-yl)naphthalen-2-ol] showed a dissociation constant Kd at KRas G12D [1] of 259 nM. The molecule further returned an IC50 at KRas G12D [2] of 95.8 nM.
The corresponding values for `Cn1ccc(COc2nc(N3C[C@H]4CC[C@@H](C3)N4)c3cnc(-c4cc(O)cc5ccccc45)c(F)c3n2)n1` [Example 8, 4-(4-((1R,5S)-3,8-diazabicyclo[3.2.1]octan-3-yl)-8-fluoro-2-((1-methyl-1H-pyrazol-3-yl)methoxy)pyrido[4,3-d]pyrimidin-7-yl)naphthalen-2-ol] are 2140 nM and 1520 nM.
Take `CC(C)n1ccnc1CCOc1nc(N2C[C@H]3CC[C@@H](C2)N3)c2cnc(-c3cc(O)cc4ccccc34)c(F)c2n1` [Example 91, 4-(4-((1R,5S)-3,8-diazabicyclo[3.2.1]octan-3-yl)-8-fluoro-2-(2-(1-isopropyl-1H-imidazol-2-yl)ethoxy)pyrido[4,3-d]pyrimidin-7-yl)naphthalen-2-ol]: the affinity on KRas G12D [1], expressed as Kd, was 25.9 nM. Further, the IC50 at KRas G12D [2] was determined as 32.7 nM.
In the same order, the values of `COc1nc(N2C[C@H]3CC[C@@H](C2)N3)c2cnc(-c3cc(O)cc4ccccc34)c(F)c2n1` [Example 105, 4-(4-((I R,5S)-3,8-diazabicyclo[3.2.1]octan-3-yl)-8-fluoro-2-methoxypyrido[4,3-d]pyrimidin-7-yl)naphthalen-2-ol] are 2260 nM and 867 nM.
In the case of `Nc1cccc(CCOc2nc(N3C[C@H]4CC[C@@H](C3)N4)c3cnc(-c4cc(O)cc5ccccc45)c(F)c3n2)n1` [Example 139, 4-(2-(2-(6-aminopyridin-2-yl)ethoxy)-4-((1R,5S)-3,8-diazabicyclo[3.2.1]octan-3-yl)-8-fluoropyrido[4,3-d]pyrimidin-7-yl)naphthalen-2-ol], at KRas G12D [1], the affinity, expressed as Kd, was 25.4 nM. This molecule yielded a half-inhibitory concentration (IC50) at KRas G12D [2] of 113 nM.
For the molecule `CN1CC(COc2nc(N3C[C@H]4CC[C@@H](C3)N4)c3cnc(-c4cccc5cccc(Cl)c45)c(F)c3n2)CC1=O` (stereo partly drawn) [Example 131, 4-(((4-((1R,5S)-3,8-diazabicyclo[3.2.1]octan-3-yl)-7-(8-chloronaphthalen-1-yl)-8-fluoropyrido[4,3-d]pyrimidin-2-yl)oxy)methyl)-1-methylpyrrolidin-2-one], binding on KRas G12D [1] was put at a Kd of 1550 nM. For the same molecule, the half-maximal inhibitory concentration (IC50) on KRas G12D [2] worked out at 424 nM.
Take `CCC1(N)CN(c2nc(N3C[C@H]4CC[C@@H](C3)N4)c3cnc(-c4cc(O)cc5ccccc45)c(F)c3n2)C1` [Example 126, 4-(2-(3-amino-3-ethylazetidin-1-yl)-4-((1R,5S)-3,8-diazabicyclo[3.2.1]octan-3-yl)-8-fluoropyrido[4,3-d]pyrimidin-7-yl)naphthalen-2-ol]: the dissociation constant Kd on KRas G12D [1] was determined as 16.1 nM. The IC50 at KRas G12D [2] came to 9.9 nM.
Consider `CO[C@@H]1C[C@@H](COc2nc(N3C[C@H]4CC[C@@H](C3)N4)c3cnc(-c4cc(O)cc5ccccc45)c(F)c3n2)N(C)C1` [Example 42, 4-(4-((1R,5S)-3,8-diazabicyclo[3.2.1]octan-3-yl)-8-fluoro-2-(((2S,4R)-4-methoxy-1-methylpyrrolidin-2-yl)methoxy)pyrido[4,3-d]pyrimidin-7-yl)naphthalen-2-ol], for which, on KRas G12D [1], the affinity, expressed as Kd, was 5.6 nM. Besides, the IC50 on KRas G12D [2] was found to be 3.1 nM.
In the same order, the values of `OC[C@@H](O)COc1nc(N2C[C@H]3CC[C@@H](C2)N3)c2cnc(-c3cccc4cccc(Cl)c34)c(F)c2n1` [Example 56, (R)-3-((4-((1R,5S)-3,8-diazabicyclo[3.2.1]octan-3-yl)-7-(8-chloronaphthalen-1-yl)-8-fluoropyrido[4,3-d]pyrimidin-2-yl)oxy)propane-1,2-diol] are 5170 nM and 5920 nM.
Take `Cc1cccnc1CCOc1nc(N2C[C@H]3CC[C@@H](C2)N3)c2cnc(-c3cc(O)cc4ccccc34)c(F)c2n1` [Example 6, 4-(4-((1R,5S)-3,8-diazabicyclo[3.2.1]octan-3-yl)-8-fluoro-2-(2-(3-methylpyridin-2-yl)ethoxy)pyrido[4,3-d]pyrimidin-7-yl)naphthalen-2-ol]: binding at KRas G12D [1] was put at a Kd of 442 nM. Besides, at KRas G12D [2], the half-inhibitory concentration (IC50) amounted to 434 nM.
Regarding `Cc1cccc(CCOc2nc(N3C[C@H]4CC[C@@H](C3)N4)c3cnc(-c4cc(O)cc5ccccc45)c(F)c3n2)n1` [Example 87, 4-(4-((1R,5S)-3,8-diazabicyclo[3.2.1]octan-3-yl)-8-fluoro-2-(2-(6-methylpyridin-2-yl)ethoxy)pyrido[4,3-d]pyrimidin-7-yl)naphthalen-2-ol], the Kd at KRas G12D [1] stood at 196 nM. Also, on KRas G12D [2], the IC50 came out at 536 nM.
On KRas G12D [1], `Oc1cc(-c2ncc3c(N4C[C@H]5CC[C@@H](C4)N5)nc(OCC4(C(F)(F)F)CC4)nc3c2F)c2ccccc2c1` [Example 51, 4-(4-((1R,5S)-3,8-diazabicyclo[3.2.1]octan-3-yl)-8-fluoro-2-((1-(trifluoromethyl)cyclopropyl)methoxy)pyrido[4,3-d]pyrimidin-7-yl)naphthalen-2-ol] showed a Kd of 611 nM. This molecule came in with a concentration for half-maximal inhibition (IC50) on KRas G12D [2] of 292 nM.
As for `Oc1cc(-c2ncc3c(N4C[C@H]5CC[C@@H](C4)N5)nc(N4CC(O)C4)nc3c2F)c2ccccc2c1` [Example 37, 1-(4-((1R,5S)-3,8-diazabicyclo[3.2.1]octan-3-yl)-8-fluoro-7-(3-hydroxynaphthalen-1-yl)pyrido[4,3-d]pyrimidin-2-yl)azetidin-3-ol bis(2,2,2-trifluoroacetate)], binding at KRas G12D [1] was put at a Kd of 494 nM. The IC50 on KRas G12D [2] was 405 nM.

The values are drawn from patent US20230279025A1, “KRAS G12D INHIBITORS” (Mirati Therapeutics, Inc., priority 2020, published 2023).
